Where no end group is shown, it is not given here.
Key:
Kunming mice = conditions: mouse, in vivo, iv
Method: Forty healthy male Kunming mice weighing ~25 g (5–6 weeks old) were injected intravenously with 100 μL of GK-19 with concentrations of 5 μmol/kg (n = 15) or 25 μmol/kg (n = 15). Mice blood samples (n = 5, per group and per time point) were collected from the mice’s eyeballs on days 1, 3 and 7 after injection for renal function test and liver function test. Meanwhile, major organs including lungs, heart, kidneys, liver and spleen were also harvested for hematoxylin and eosin staining on days 1, 3 and 7 after injection. To monitor the body weight changes in mice after injection of GK-19, five healthy male Kunming mice weighing ~25 g were injected intravenously with 100 μL of GK-19 with concentrations of 25 μmol/kg. Mice weights were recorded daily for seven days.
The hematoxylin and eosin staining in this study was carried out by Servicebio (Wuhan, China). Briefly, the obtained skin tissues were soaked in 4% paraformaldehyde solution (Beyotime, China) and fixed for more than 24 h. Then, they were dehydrated and embedded with paraffin, and tissue sections having thicknesses of 4 μm were prepared. After deparaffinization and rehydration, hematoxylin and eosin staining was performed.

[1] = system: Klebsiella pneumoniae (K. pneumoniae, ATCC700603); type: cell-based; conditions: 1 × 10^6 CFU/mL, MHB, 12 h, peptide 0-20 μM, absorbance at 600 nm, n = 5
Source text: (§1) Pseudomonas aeruginosa (P. aeruginosa, ATCC27853), Methicillin-Resistant Staphylococcus aureus (MRSA, 2104270609, clinically isolated strain), Escherichia coli (E. coli, ATCC25922), Klebsiella pneumoniae (K. pneumoniae, ATCC700603), Enterococcus faecalis (E. faecalis, ATCC29212), Candida krusei (C. krusei, ATCC6258), Candida albicans (C. albicans, ATCC90028), and Candida glabrata (C. glabrata, ATCCMYA-2950) were obtained from the First Affiliated Hospital of Xi’an Jiaotong University. Bacterial strains were cultured in MHA or MHB. Fungal strains were cultured in PDA or PDB.
(§2) Strains were incubated in MHB or PDB. After growing for 12–16 h at 37 °C, 200 rpm, 100 μL of 1 × 10^6 CFU/mL of the strains was seeded into 96-well plates and incubated with fresh culture medium containing various antimicrobial peptides (peptide concentration: 0, 0.5, 1.0, 2.0, 3.0, 5.0, 10, 15 or 20 μM) for 12 h. Each concentration was repeated five times. Absorbance at 600 nm was measured using the Multilabel Reader Varioskan Flash (Thermo Fisher). […] (1)

[2] = system: Methicillin-Resistant Staphylococcus aureus (MRSA, 2104270609, clinically isolated strain); type: cell-based; conditions: 1 × 10^6 CFU/mL, MHB, 12 h, peptide 0-20 μM, absorbance at 600 nm, n = 5
Source text: as §1, §2

[3] = system: Escherichia coli (E. coli, ATCC25922); type: cell-based; conditions: 1 × 10^6 CFU/mL, MHB, 12 h, peptide 0-20 μM, absorbance at 600 nm, n = 5
Source text: as §1, §2

[4] = system: Candida albicans (C. albicans, ATCC90028); type: cell-based; conditions: 1 × 10^6 CFU/mL, PDB, 12 h, peptide 0-20 μM, absorbance at 600 nm, n = 5
Source text: as §1, §2

[5] = system: Candida glabrata (C. glabrata, ATCCMYA-2950); type: cell-based; conditions: 1 × 10^6 CFU/mL, PDB, 12 h, peptide 0-20 μM, absorbance at 600 nm, n = 5
Source text: as §1, §2

[6] = system: Pseudomonas aeruginosa (P. aeruginosa, ATCC27853); type: cell-based; conditions: 1 × 10^6 CFU/mL, MHB, 12 h, peptide 0-20 μM, absorbance at 600 nm, n = 5
Source text: as §1, §2

[7] = system: Enterococcus faecalis (E. faecalis, ATCC29212); type: cell-based; conditions: 1 × 10^6 CFU/mL, MHB, 12 h, peptide 0-20 μM, absorbance at 600 nm, n = 5
Source text: as §1, §2

[8] = system: Candida krusei (C. krusei, ATCC6258); type: cell-based; conditions: 1 × 10^6 CFU/mL, PDB, 12 h, peptide 0-20 μM, absorbance at 600 nm, n = 5
Source text: as §1, §2

Sequence: GFLFKLIPKAIKKLISKFK [GK-19]
- body weight change (Kunming mice): gradual gain in body weight
- histology of major organs (heart, liver, spleen, lungs, kidneys) (Kunming mice): no observable tissue damage, necrosis, or inflammation
- liver and renal function tests (Kunming mice): no difference from that in healthy mice
- Minimum inhibitory concentration (MIC), K. pneumoniae [1]: 5 µM
- Minimum inhibitory concentration (MIC), MRSA [2]: 5 µM
- Minimum inhibitory concentration (MIC), E. coli [3]: 3 µM
- Minimum inhibitory concentration (MIC), C. albicans [4]: 10 µM
- Minimum inhibitory concentration (MIC), C. glabrata [5]: 10 µM
- Minimum inhibitory concentration (MIC), P. aeruginosa [6]: 5 µM
- Minimum inhibitory concentration (MIC), E. faecalis [7]: 3 µM
- Minimum inhibitory concentration (MIC), C. krusei [8]: 5 µM

— PMC9503518, “Antibacterial and Antifungal Properties of a Novel Antimicrobial Peptide GK-19 and Its Application in Skin and Soft Tissue Infections Induced by MRSA or Candida albicans” (Pharmaceutics, 2022)
